Experimental data from US20200179510A1, “LOW DENSITY LIPOPROTEIN RECEPTOR RELATED PROTEIN 5 INHIBITION SUPPRESSES TUMOR FORMATION” (YALE UNIVERSITY, priority 2017, published 2020).

Assays:
[1] = test system: Wnt reporter gene TOPFlash; assay: Wnt reporter gene (TOPFlash) assay in HEK293 cells; format: cell-based; conditions: for Wnt reporter gene activity: DKK2 5 nM, Wnt3a 2 nM, CHIR 1 μM, 6 hrs (FIG. 10D)
Method: The Stat5 reporter assays were done in HEK293T cells for activated JAK1-induced activity or in those stably expressing JAK3, IL2/15Rβ and the common receptor γ subunit for IL15 induced activity. Cells were seeded at 8×10^4 cells per well in 48 well plate. The next day, cells were transfected by Lipofectamine 2000 (Invitrogen) with the pGL4.52-STAT5-Luciferase (Promega) and tagRFP (internal control) plasmids together with other plasmids expressing genes of interest. The total amount of plasmid was kept at 125 ng per well. The cells were added 24 hours after transfection with IL15/IL15Rα-Fc complex or mock. Six hours later, the cells were lysed and subjected to RFP fluorescence and luciferase luminescence measurement using an Envision Multilabel plate reader. The reporter gene activity is shown after being normalized against RFP readings. The LEF reporter assay was carried out in HEK293 cells that were transfected with the TOPFlash and GFP plasmids. The rest is the same as above. The reporter gene activity is shown after being normalized against GFP readings.
A functional mouse monoclonal anti-DKK2 antibody (5F8) was developed to specifically target and neutralize DKK2, but to not cross react with DKK-1. […] It has been shown that DKK2 as well as other DKK family proteins, inhibit canonical Wnt signaling by binding to Wnt co-receptor LRP 5/6 with high affinity and competing with Wnt molecules for receptor binding (MacDonald, B., et al., Dev Cell, 2009. 17(1): p. 9-26; Bao, J., et al., Sci Signal, 2012. 5(224): pe22). To determine if 5F8 diminished DKK2 inhibition of Wnt signaling, a Wnt reporter gene assay was used to measure Wnt activity. HEK293 cells were transfected with Wnt reporter gene TOPFlash and Wnt reporter activity was examined.

[2] = test system: primary mouse NK cells; assay: IL-15-cultured primary mouse NK cells (flow cytometry, Western); format: cell-based; conditions: for granzyme B in primary NK cells: WNT3a 2 nM, CHIR 1 μM
Method: Cells in single cell suspension were fixed with 2% PFA (Santa-Cruz sc-281692). After washing with a Flow Cytometry Staining Buffer (eBioscience 00-4222-26), cells were stained with antibodies for cell surface markers for 1 hour on ice in the dark. For staining of intracellular proteins, the cells were washed and resuspended in the Permeabilization Buffer (BD 554723) and stained by antibodies in the Permeabilization Buffer for 1 hour on ice in the dark. The cells were then pelleted and resuspended in the Flow Cytometry Staining Buffer for flow cytometry analysis.
Mouse primary NK and CD8+ T cells were isolated from the spleens by using the NK cell and CD8+ T cell isolation kits according to the manufacturer's instructions (Miltenyi Biotec #130-090-864 and #130-104-075), respectively. Primary NK cells were cultured in RPMI-1640 (Gibco, 11875-093) supplemented with 10% FBS, penicillin (100 U/ml), streptomycin (100 μg/ml), 2-mercaptoethanol (500 μM) and HEPES (10 mM) at 37° C. supplemented with 5% CO2 in the presence of recombinant murine IL-15 (50 ng/ml) for 24 hours before treatment with DKK2, CHIR99021, or WNT3A. CD8+ T cells were cultured in the same culture medium and condition as NK cells, but supplemented with IL-15 (200 ng/ml) and IL-15 Rα (1 μg/ml recombinant Mouse IL-15 receptor alpha Fc chimera Protein from R&D) for 96 hours before DKK2 treatment. Mouse primary intraepithelial lymphocytes (IELs) were prepared as described in (Little et al., The Journal of Immunology 175, 6713-6722 (2005) and Li et al. Infect Immun 80, 565-574 (2012)). In brief, the small intestine was everted, divided into four pieces, and washed twice in phosphate-buffered saline (PBS) containing 100 U/ml penicillin/streptomycin The specimens were then incubated with stirring at 37° C. in prewarmed Ca2+ and Mg2+-free Hanks' solution containing 100 U/ml penicillin-streptomycin, 5% fetal calf serum (FCS), 2 mM dithiothreitol (DTT), and 5 mM EDTA for 30 min, followed by vigorous shaking for 30 s. The supernatants were passed over two nylon wool columns to remove undigested tissue debris. The lymphocytes obtained were pooled and enriched on a discontinuous (40% and 70%) Percoll density gradient. Cells at the interface between the 40% and […], fractions (IELs) were collected for treatment with IL-15 (200 ng/ml) and DKK2 (200 ng/ml), followed by flow analysis.

Molecule	Wnt reporter gene activity [1]	granzyme B in primary NK cells ([2]; 24 hours)	Wnt reporter activity ([1]; HEK293, TOPFlash, conditioned medium (FIG. 1E))	β-catenin accumulation in LRP5-deficient NK cells ([2]; LRP5-deficiency)	β-catenin accumulation in LRP6-deficient NK cells ([2]; LRP6-deficient)	β-catenin accumulation in primary NK cells ([2]; WNT3A 5 nM, 24 hours, Western)
Cc1c[nH]c(-c2cnc(NCCNc3ccc(C#N)cn3)nc2-c2ccc(Cl)cc2Cl)n1 [CHIR99021, reference compound]	strong effect on Wnt reporter gene activity	no significant effect on granzyme B	–	–	–	–
WNT3A	a strong increase in the reporter gene activity	no significant effect on granzyme B expression	increased Wnt reporter activity	did not affect β-catenin accumulation	did not induce β-catenin accumulation	induced β-catenin accumulation
